Here are results for 14 compounds from patent publication US20250129070A1, “BIFUNCTIONAL ANDROGEN RECEPTOR COMPOUNDS” (priority 2023, published 2025).

A word on the EC50: it is the concentration that produces a half-maximal response. Higher therefore signals lower potency in that assay. The IC50 is the concentration that gives 50% inhibition. The low end stands for higher potency, the high end for lower potency.

One experiment deals with AR / CBP ternary complex. Put plainly: Ternary complex formation assay (sandwich ELISA, AR capture / CBP detection) in VCaP cell lysates. Format: cell-based. The settings on record: 1.5 hours treatment, sandwich ELISA (AR capture, CBP or p300 detection). The gist of the method:
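VCaP cells (50K/well, 5% charcoal-stripped FBS, ≥3 days) treated with bifunctional compound for 1.5 h, then lysed 30 min at 4 °C. AR captured on anti-AR (AR 441) plates; bound CBP or p300 detected by rabbit mAb plus HRP secondary. QuantaRed chemifluorescence read at ex 570/em 585, immediately and at 5 and 15 min.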
Background: In an ELISA, binding on a coated surface is turned into a signal by an enzyme label.

A further experiment relates to VCaP cells. Put plainly: VCaP growth inhibition assay. It counts as cell-based. As to conditions: 30 pM R1881, 9 days, CTG. The gist of the method:
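VCaP cells in phenol red-free DMEM/5% CSS, pre-incubated 72 h, then stimulated with R1881 (final 30 pM) and treated with 1:5 serial dilutions (final 100 nM to 10 fM) for 9 days at 37 °C. Viability by CellTiter-Glo luminescence; IC50 from 4-parameter logistic fit of RLU vs concentration.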

In the experiment with AR / CBP ternary complex, `CC(=O)N1CCc2c(c(N3CCCc4cc(-c5cnn(C)c5)c(C)cc43)nn2C2CCN(CC3CCN(c4ncc(C(=O)NC5C(C)(C)C(Oc6ccc(C#N)c(Cl)c6)C5(C)C)cn4)CC3(C)C)CC2)C1` (stereo not shown) [Compound 446, 2-[4-[[4-[5-acetyl-3-[7-methyl-6-(1-methylpyrazol-4-yl)-3,4-dihydro-2H-quinolin-1-yl]-6,7-dihydro-4H-pyrazolo[4,3-c]pyridin-1-yl]-1-piperidyl]methyl]-3,3-dimethyl-1-piperidyl]-N-[3-(3-chloro-4-cyano-phenoxy)-2,2,4,4-tetramethyl-cyclobutyl]pyrimidine-5-carboxamide] yielded an EC50 of less than 1 nM. This compound returned an IC50 with VCaP cells of 0.1 to 1 nM.

In the case of `CC(=O)N1CCc2c(c(-c3cccc4cc(-c5cnn(CC6CC7(C6)CN(c6ncc(C(=O)NC8C(C)(C)C(Oc9ccc(C#N)c(Cl)c9)C8(C)C)cn6)C7)c5)ncc34)nn2C2CCOCC2)C1` (stereo not shown) [Compound 223, 2-[6-[[4-[8-(5-acetyl-1-tetrahydropyran-4-yl-6,7-dihydro-4H-pyrazolo[4,3-c]pyridin-3-yl)-3-isoquinolyl]pyrazol-1-yl]methyl]-2-azaspiro[3.3]heptan-2-yl]-N-[3-(3-chloro-4-cyano-phenoxy)-2,2,4,4-tetramethyl-cyclobutyl]pyrimidine-5-carboxamide], the EC50 with AR / CBP ternary complex is less than 1 nM. The compound also registered an IC50 with VCaP cells not above 0.1 nM.

As to `COc1cc(OC2C(C)(C)C(NC(=O)c3ccc(N4CC5(CCC(N6CCC(n7nc(-c8cccc9cc(-c%10cnn(C)c%10)ncc89)c8c7CCN(C(C)=O)C8)CC6)CC5)C4)cc3)C2(C)C)ccc1C#N` (stereo not shown) [Compound 448, 4-[7-[4-[5-acetyl-3-[3-(1-methylpyrazol-4-yl)-8-isoquinolyl]-6,7-dihydro-4H-pyrazolo[4,3-c]pyridin-1-yl]-1-piperidyl]-2-azaspiro [3.5]nonan-2-yl]-N-[3-(4-cyano-3-methoxy-phenoxy)-2,2,4,4-tetramethyl-cyclobutyl]benzamide], the concentration for a half-maximal effect (EC50) with AR / CBP ternary complex was less than 1 nM. Also, in the experiment with VCaP cells, the IC50 is 0.1 to 1 nM.

Consider `COc1cc(OC2C(C)(C)C(NC(=O)c3ccc(N4CC5(CCC(N6CCC(n7nc(N8CCCc9cc(-c%10ccn(C)n%10)c(C(F)F)cc98)c8c7CCN(C(C)=O)C8)CC6)CC5)C4)cc3)C2(C)C)ccc1C#N` (stereo not shown) [Compound 432, 4-[7-[4-[5-acetyl-3-[7-(difluoromethyl)-6-(1-methylpyrazol-3-yl)-3,4-dihydro-2H-quinolin-1-yl]-6,7-dihydro-4H-pyrazolo[4,3-c]pyridin-1-yl]-1-piperidyl]-2-azaspiro[3.5]nonan-2-yl]-N-[3-(4-cyano-3-methoxy-phenoxy)-2,2,4,4-tetramethyl-cyclobutyl]benzamide], for which the concentration giving a half-maximal response (EC50) in the experiment on AR / CBP ternary complex is less than 1 nM. For the same compound, the IC50 in the experiment with VCaP cells was not above 0.1 nM.

In the experiment on AR / CBP ternary complex, `CC(=O)N1CCc2c(c(N3CCCc4cc(-c5cnn(C)c5)c(C(F)F)cc43)nn2C2CCN(CC3CCN(c4ncc(C(=O)NC5C(C)(C)C(Oc6ccc(C#N)c(Cl)c6)C5(C)C)cn4)CC34CC4)CC2)C1` (stereo not shown) [Compound 357, 2-[8-[[4-[5-acetyl-3-[7-(difluoromethyl)-6-(1-methylpyrazol-4-yl)-3,4-dihydro-2H-quinolin-1-yl]-6,7-dihydro-4H-pyrazolo[4,3-c]pyridin-1-yl]-1-piperidyl]methyl]-5-azaspiro[2.5]octan-5-yl]-N-[3-(3-chloro-4-cyano-phenoxy)-2,2,4,4-tetramethyl-cyclobutyl]pyrimidine-5-carboxamide] yielded a half-maximal effective concentration (EC50) of less than 1 nM. The IC50 in the experiment on VCaP cells is not above 0.1 nM.

Take `Cn1cc(-c2cc3cccc(-c4cc(C5CCN(CC6CCN(c7ncc(C(=O)NC8C(C)(C)C(Oc9ccc(C#N)c(Cl)c9)C8(C)C)cn7)CC6)CC5)c5c(c4)n(C)c(=O)n5C)c3cn2)cn1` (stereo not shown) [Compound 213, N-[3-(3-chloro-4-cyano-phenoxy)-2,2,4,4-tetramethyl-cyclobutyl]-2-[4-[[4-[1,3-dimethyl-6-[3-(1-methylpyrazol-4-yl)-8-isoquinolyl]-2-oxo-benzimidazol-4-yl]-1-piperidyl]methyl]-1-piperidyl]pyrimidine-5-carboxamide]: in the experiment with AR / CBP ternary complex, the EC50 is more than 100 nM. The compound further returned an IC50 with VCaP cells of 0.1 to 1 nM.

In the case of `COc1cc(OC2C(C)(C)C(NC(=O)c3ccc(N4CCC(OC5CCC(n6nc(N7CCCc8cc(-c9cnn(C)c9)c(C(F)F)cc87)c7c6CCN(C(C)=O)C7)CC5)CC4)cc3)C2(C)C)ccc1C#N` (stereo not shown) [Compound 309, 4-[4-[4-[5-acetyl-3-[7-(difluoromethyl)-6-(1-methylpyrazol-4-yl)-3,4-dihydro-2H-quinolin-1-yl]-6,7-dihydro-4H-pyrazolo[4,3-c]pyridin-1-yl]cyclohexoxy]-1-piperidyl]-N-[3-(4-cyano-3-methoxy-phenoxy)-2,2,4,4-tetramethyl-cyclobutyl]benzamide], the EC50 with AR / CBP ternary complex was less than 1 nM. The IC50 in the experiment with VCaP cells lay in the range of 0.1 to 1 nM.

Turning to `CC(=O)N1CCc2c(c(N3CCCc4cc(-c5cnn(C)c5)c(C(F)F)cc43)nn2C2CCN(Cc3ncc(C(=O)NC4C(C)(C)C(Oc5ccc(C#N)c(Cl)c5)C4(C)C)cn3)CC2)C1` (stereo not shown) [Compound 94, 2-[[4-[5-acetyl-3-[7-(difluoromethyl)-6-(1-methylpyrazol-4-yl)-3,4-dihydro-2H-quinolin-1-yl]-6,7-dihydro-4H-pyrazolo[4,3-c]pyridin-1-yl]-1-piperidyl]methyl]-N-[3-(3-chloro-4-cyano-phenoxy)-2,2,4,4-tetramethyl-cyclobutyl]pyrimidine-5-carboxamide], the EC50 in the experiment on AR / CBP ternary complex lay in the range of 10 to 100 nM. This compound returned an IC50 in the experiment with VCaP cells of 1 to 100 nM.

Consider `CC(=O)N1CCc2c(c(N3CCCc4cc(-c5cnn(C)c5)ccc43)nn2C2CCN(CC3CCN(c4ncc(C(=O)NC5C(C)(C)C(Oc6ccc(C#N)c(Cl)c6)C5(C)C)cn4)CC3)CC2)C1` (stereo not shown) [Compound 24, 2-[4-[[4-[5-acetyl-3-[6-(1-methylpyrazol-4-yl)-3,4-dihydro-2H-quinolin-1-yl]-6,7-dihydro-4H-pyrazolo[4,3-c]pyridin-1-yl]-1-piperidyl]methyl]-1-piperidyl]-N-[3-(3-chloro-4-cyano-phenoxy)-2,2,4,4-tetramethyl-cyclobutyl]pyrimidine-5-carboxamide], for which the EC50 with AR / CBP ternary complex is less than 1 nM. Besides, in the experiment with VCaP cells, the IC50 fell in the range of 0.1 to 1 nM.

As for `COc1cc(OC2C(C)(C)C(NC(=O)c3ccc(N4CC(N5CCC6(CCC(n7nc(N8CCCc9cc(-c%10cnn(C)c%10)c(C(F)F)cc98)c8c7CCN(C(C)=O)C8)CC6)C5)C4)cc3)C2(C)C)ccc1C#N` (stereo not shown) [Compound 401, 4-[3-[8-[5-acetyl-3-[7-(difluoromethyl)-6-(1-methylpyrazol-4-yl)-3,4-dihydro-2H-quinolin-1-yl]-6,7-dihydro-4H-pyrazolo[4,3-c]pyridin-1-yl]-2-azaspiro [4.5]decan-2-yl]azetidin-1-yl]-N-[3-(4-cyano-3-methoxy-phenoxy)-2,2,4,4-tetramethyl-cyclobutyl]benzamide], in the experiment on AR / CBP ternary complex, the EC50 was less than 1 nM. The IC50 with VCaP cells lay within 0.1 to 1 nM.

`CC(=O)N1CCc2c(c(N3CCCc4cc(-c5cnn(C)c5)c(C(F)F)cc43)nn2C2CCC3(CC2)CN(C2CCN(c4ncc(C(=O)NC5C(C)(C)C(Oc6ccc(C#N)c(Cl)c6)C5(C)C)cn4)CC2)C3)C1` (stereo not shown) [Compound 371, 2-[4-[7-[5-acetyl-3-[7-(difluoromethyl)-6-(1-methylpyrazol-4-yl)-3,4-dihydro-2H-quinolin-1-yl]-6,7-dihydro-4H-pyrazolo[4,3-c]pyridin-1-yl]-2-azaspiro[3.5]nonan-2-yl]-1-piperidyl]-N-[3-(3-chloro-4-cyano-phenoxy)-2,2,4,4-tetramethyl-cyclobutyl]pyrimidine-5-carboxamide] came in with a 50% effective concentration (EC50) in the experiment on AR / CBP ternary complex of less than 1 nM. For the same compound, in the experiment on VCaP cells, the IC50 was not above 0.1 nM.

Compound `CC(=O)N1CCc2c(c(N3CCCc4cc(-c5cnn(C)c5)c(C(F)F)cc43)nn2C2CCC(C3CCC4(CC3)CN(c3ncc(C(=O)NC5C(C)(C)C(Oc6ccc(C#N)c(Cl)c6)C5(C)C)cn3)C4)CC2)C1` (stereo not shown) [Compound 379, 2-[7-[4-[5-acetyl-3-[7-(difluoromethyl)-6-(1-methylpyrazol-4-yl)-3,4-dihydro-2H-quinolin-1-yl]-6,7-dihydro-4H-pyrazolo[4,3-c]pyridin-1-yl]cyclohexyl]-2-azaspiro[3.5]nonan-2-yl]-N-[3-(3-chloro-4-cyano-phenoxy)-2,2,4,4-tetramethyl-cyclobutyl]pyrimidine-5-carboxamide] registered an EC50 in the experiment with AR / CBP ternary complex of 1 to 10 nM. In addition, the IC50 in the experiment with VCaP cells lay within 1 to 100 nM.

In the experiment with AR / CBP ternary complex, `CC(=O)N1CCc2c(c(N3CCCc4cc(-c5cnn(C)c5)c(C(F)F)cc43)nn2C2CCN(C(C)CC3CCN(c4ncc(C(=O)NC5C(C)(C)C(Oc6ccc(C#N)c(Cl)c6)C5(C)C)cn4)CC3)CC2)C1` (stereo not shown) [Compound 171, 2-[4-[2-[4-[5-acetyl-3-[7-(difluoromethyl)-6-(1-methylpyrazol-4-yl)-3,4-dihydro-2H-quinolin-1-yl]-6,7-dihydro-4H-pyrazolo[4,3-c]pyridin-1-yl]-1-piperidyl]propyl]-1-piperidyl]-N-[3-(3-chloro-4-cyano-phenoxy)-2,2,4,4-tetramethyl-cyclobutyl]pyrimidine-5-carboxamide] displayed an EC50 of less than 1 nM. The compound also showed an IC50 in the experiment on VCaP cells not above 0.1 nM.

`CC(=O)N1CCc2c(c(-c3cccc4cc(-c5cnn(CCC6CCN(c7ncc(C(=O)NC8C(C)(C)C(Oc9ccc(C#N)c(Cl)c9)C8(C)C)cn7)CC6)c5)ncc34)nn2C2CCOCC2)C1` (stereo not shown) [Compound 139, 2-[4-[2-[4-[8-(5-acetyl-1-tetrahydropyran-4-yl-6,7-dihydro-4H-pyrazolo[4,3-c]pyridin-3-yl)-3-isoquinolyl]pyrazol-1-yl]ethyl]-1-piperidyl]-N-[3-(3-chloro-4-cyano-phenoxy)-2,2,4,4-tetramethyl-cyclobutyl]pyrimidine-5-carboxamide] had an EC50 in the experiment on AR / CBP ternary complex of more than 100 nM. Also, the IC50 in the experiment on VCaP cells is not above 0.1 nM.
